Patent US10392422B2, “Macrocyclic broad spectrum antibiotics” (priority 2014, dated 2019)
In brackets after ≈: the same amount, converted by molar mass. Like-named read-outs stand apart in the source and are kept apart here.

Legend:
Experiment in all cases: MIC, broth micro-dilution technique (CLSI)
[1] = system: Escherichia coli MC4100 harboring the IMP4213; assay type: cell-based; details: 35° C., 22 hours; for MIC: Escherichia coli, 22 h
Method in brief: (§1)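 Cation-adjusted MHB + 0.002% Tween-80; 10-point 2-fold series starting 64 μg/ml (modified protocol: 4 μg/mL). Final inoculum OD600 0.0005; 35° C, 22 h. MIC per CLSI M07-A8 broth microdilution.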

[2] = system: Methicillin Resistant Staphylococcus aureus strain USA 300 (NRS384); assay type: cell-based; details: for MIC: Staphylococcus aureus, 22 h, read-out: MIC (μg/mL) S. aureus
Method in brief: as §1

[3] = system: MRSA COL (NRS100); assay type: cell-based, Staphylococcus aureus; details: for MIC: Staphylococcus aureus, 22 h, read-out: MIC (μg/mL) (COL)
Method in brief: as §1

[4] = Table 2 modified protocol: serial 2-fold dilutions starting from 4 μg/mL
[5] = Table 2 modified protocol: serial 2-fold dilutions starting from 4 μg/mL, 35° C., 22 hours
[6] = Table 1 protocol: serial 2-fold dilutions starting from 64 μg/ml, 35° C., 22 hours
[7] = read-out: MIC (μg/mL) E. coli, Table 2 modified protocol: serial 2-fold dilutions starting from 4 μg/mL

Compound | MIC (μg/mL) E. coli [1, 4] | MIC (μg/mL) S. aureus [2, 5] | MIC (μg/mL) (COL) [3, 5] | MIC [1, 7] | also measured
CCCCCCCCCC(=O)NCC(=O)N(C)[C@@H]1C(=O)N[C@@H](C)C(=O)N[C@H](C(=O)N[C@@H](C)C(C)=O)Cc2ccc(OCCN)c(c2)-c2cc1ccc2OCCN.O=CO [Compound 267] | >4 µg/mL | 1.5 µg/mL | 0.5 µg/mL |  | 
CCCCCCCCCCNCCC(=O)N(C)[C@@H]1C(=O)N[C@@H](C)C(=O)N[C@H](C(=O)N[C@@H](C)C(C)=O)Cc2ccc(OCCN)c(c2)-c2cc1ccc2OCCN.O=CO [Compound 268] | 2.5 µg/mL | 2.1 µg/mL | 1 µg/mL |  | 
CCCCCCCCCCNCC(=O)N(C)[C@@H]1C(=O)N[C@@H](C)C(=O)N[C@H](C(=O)N[C@@H](C)C(C)=O)Cc2ccc(OCCN)c(c2)-c2cc1ccc2OCCN.O=CO [Compound 269] | >4 µg/mL | 0.38 µg/mL | 0.13 µg/mL |  | 
CCCCCCCCCCNCCC(=O)N[C@@H](CCCCN)C(=O)N(C)[C@@H]1C(=O)N[C@@H](C)C(=O)N[C@H](C(=O)N[C@@H](C)C(C)=O)Cc2ccc(OCCN)c(c2)-c2cc1ccc2OCCN.O=CO [Compound 270] |  |  |  |  | MIC (μg/mL) E. coli ([1]; Table 1 protocol: serial 2-fold dilutions starting from 64 μg/ml): 8 µg/mL; MIC (μg/mL) S. aureus [2, 6]: 0.25 µg/mL; MIC (μg/mL) (COL) [3, 6]: 0.063 µg/mL
CCCCCCCCCCNCCC(=O)N[C@@H](CCCCN)C(=O)N(C)[C@@H]1C(=O)N[C@@H](C)C(=O)N[C@H](C(=O)N[C@@H](C)C(=O)c2nnn[nH]2)Cc2ccc(OCCN)c(c2)-c2cc1ccc2OCCN.O=CO [Compound 271] | 4 µg/mL | 0.047 µg/mL | 0.016 µg/mL |  | 
CCCCc1ccc(-c2ccc(C(=O)N[C@@H](CCCCN)C(=O)N(C)[C@@H]3C(=O)N[C@@H](C)C(=O)N[C@H](C(=O)N[C@@H](C)C(C)=O)Cc4ccc(OCCN)c(c4)-c4cc3ccc4OCCN)cc2)cc1 [Compound 272] |  |  |  | 0.25 µg/mL (≈ 0.268 µM) | MIC [2, 5]: 0.13 µg/mL (≈ 0.139 µM); MIC [3, 5]: 0.063 µg/mL (≈ 0.0675 µM)
C[C@@H]1NC(=O)[C@@H](N(C)C(=O)[C@H](CCCCN)NC(=O)c2ccc(-c3ccc(Cl)cc3)cc2)c2ccc(OCCN)c(c2)-c2cc(ccc2OCCN)C[C@@H](C(=O)N[C@@H](C)C(=O)c2[nH]ncc2[N+](=O)[O-])NC1=O [Compound 273] | 4 µg/mL (≈ 3.97 µM) | 0.75 µg/mL (≈ 0.744 µM) | 0.38 µg/mL (≈ 0.377 µM) |  | 
C[C@@H]1NC(=O)[C@@H](N(C)C(=O)[C@H](CCCCN)NC(=O)c2ccc(-c3ccc(Cl)cc3)cc2)c2ccc(OCCN)c(c2)-c2cc(ccc2OCCN)C[C@@H](C(=O)N[C@@H](C)C(=O)c2[nH]ncc2N)NC1=O [Compound 274] |  |  |  | 4 µg/mL (≈ 4.09 µM) | MIC [2, 5]: > 4 µg/mL; MIC [3, 5]: 1.5 µg/mL (≈ 1.53 µM)
C[C@@H]1NC(=O)[C@@H](N(C)C(=O)[C@H](CCCCN)NC(=O)c2ccc(-c3ccc(Cl)cc3)cc2)c2ccc(OCCN)c(c2)-c2cc(ccc2OCCN)C[C@@H](C(=O)N[C@@H](C)C(=O)c2nc(Cl)n[nH]2)NC1=O [Compound 275] |  |  |  | 2 µg/mL (≈ 2 µM) | MIC [2, 5]: 1 µg/mL (≈ 1 µM); MIC [3, 5]: 0.13 µg/mL (≈ 0.13 µM)
C[C@@H]1NC(=O)[C@@H](N(C)C(=O)[C@H](CCCCN)NC(=O)c2ccc(-c3ccc(Cl)cc3)cc2)c2ccc(OCCN)c(c2)-c2cc(ccc2OCCN)C[C@@H](C(=O)N[C@@H](C)C(=O)c2c([N+](=O)[O-])cnn2C)NC1=O [Compound 276] | 4 µg/mL (≈ 3.91 µM) | 4 µg/mL (≈ 3.91 µM) | 1.5 µg/mL (≈ 1.47 µM) |  | 
C[C@@H]1NC(=O)[C@@H](N(C)C(=O)[C@H](CCCCN)NC(=O)c2ccc(-c3ccc(Cl)cc3)cc2)c2ccc(OCCN)c(c2)-c2cc(ccc2OCCN)C[C@@H](C(=O)N[C@@H](C)C(=O)N2CCC[C@H]2C(N)=O)NC1=O [Compound 277] |  |  |  |  | MIC ([1]; read-out: MIC (μg/mL) E. coli, Table 1 protocol: serial 2-fold dilutions starting from 64 μg/ml): 2 µg/mL (≈ 1.98 µM); MIC [2, 6]: 0.75 µg/mL (≈ 0.743 µM); MIC [3, 6]: 0.25 µg/mL (≈ 0.248 µM)
C[C@@H]1NC(=O)[C@@H](N(C)C(=O)[C@H](CCCCN)NC(=O)c2ccc(-c3ccc(C(C)(C)C)cc3)cc2)c2ccc(OCCN)c(c2)-c2cc(ccc2OCCN)C[C@@H](C(=O)O)NC1=O [Compound 278] |  |  |  | 0.031 µg/mL (≈ 0.0359 µM) | MIC [2]: 0.25 µg/mL (≈ 0.289 µM); MIC [3]: 0.094 µg/mL (≈ 0.109 µM)
C[C@@H]1NC(=O)[C@@H](N(C)C(=O)[C@H](CCCCN)NC(=O)c2ccc(-c3ccc(C(F)(F)F)cc3)cc2)c2ccc(OCCN)c(c2)-c2cc(ccc2OCCN)C[C@@H](C(=O)O)NC1=O [Compound 279] |  |  |  | 0.25 µg/mL (≈ 0.285 µM) | MIC [2]: 2 µg/mL (≈ 2.28 µM); MIC [3]: 0.5 µg/mL (≈ 0.571 µM)
C[C@@H]1NC(=O)[C@@H](N(C)C(=O)[C@H](CCCCN)NC(=O)c2ccc(-c3cc(Cl)cc(Cl)c3)cc2)c2ccc(OCCN)c(c2)-c2cc(ccc2OCCN)C[C@@H](C(=O)O)NC1=O [Compound 280] |  |  |  | 0.25 µg/mL (≈ 0.285 µM) | MIC [2]: 0.75 µg/mL (≈ 0.855 µM); MIC [3]: 0.38 µg/mL (≈ 0.433 µM)
